Results on five compounds are retold here after ChEMBL document CHEMBL1123627, “Effect of beta-alkyl substitution on D-1 dopamine agonist activity: absolute configuration of beta-methyldopamine” (1987).

The structures appear in SMILES notation.

Type in all cases: functional
The species entered for test [1] is Rattus norvegicus. As to the kind of experiment: Ability to stimulate the production of cyclic AMP by rat retinal adenylate cyclase at a concentration of 0.1 uM.
The species named for test [2] is Rattus norvegicus. Description: Ability to stimulate the production of cyclic AMP by rat retinal adenylate cyclase at a concentration of 10 uM.
The species named for test [3] is Rattus norvegicus. As to the kind of experiment: Ability to stimulate the production of cyclic AMP by rat retinal adenylate cyclase at a concentration of 1 uM.

Turning to `C[C@H](CN)c1ccc(O)c(O)c1`, the Stimulation is recorded as 1.6% in the test listed under Rattus norvegicus [1], 39.1% in the test filed under Rattus norvegicus [2] and 11.7% in the test filed under Rattus norvegicus [3].
On to `NCC(c1ccccc1)c1ccc(O)c(O)c1` (stereo not given), for which the Stimulation in the test listed under Rattus norvegicus [1] is reported as 4.9%; in the test listed under Rattus norvegicus [2] it was 97.1%; in the test filed under Rattus norvegicus [3], 16.3%.
Consider `CC(CN)c1ccc(O)c(O)c1` (racemic), for which the Stimulation in the test filed under Rattus norvegicus [1] was 5.9%; in the test listed under Rattus norvegicus [2], 10.5%; in the test filed under Rattus norvegicus [3], -3.5%.
`CC(CN)c1ccc(O)c(O)c1` (single isomer, unassigned): the Stimulation turned out to be 1.5% in the test filed under Rattus norvegicus [1], 41% in the test listed under Rattus norvegicus [2] and 6% in the test listed under Rattus norvegicus [3].
On to `NCCc1ccc(O)c(O)c1` [DOPAMINE], for which the Stimulation was found to be 31.4% in the test listed under Rattus norvegicus [1], 205.4% in the test filed under Rattus norvegicus [2] and 106.4% in the test listed under Rattus norvegicus [3].
